molecular target: T1, carbamoylytic enzyme (Enzyme II, carbamoylase) (Agrobacterium radiobacter, UniProt Q44185); test: enzymic activity test of acetonic powder of Agrobacterium sp. cells on N-carbamoyl aminoacid substrates (NH4+ by phenol-hypochlorite method); format: biochemical; settings: 20 mM substrate in pyrophosphate buffer 0.1 M pH 7.7, acetonic powder, 40° C., 1-hour incubation, under nitrogen
T1 construct: endogenous in cells; host or cells: Agrobacterium sp. cells, acetone-dried powder (crude, enzyme not purified)
Description: Cells of Agrobacterium sp. strain were prepared as described in Example 1. A few grams of moist cellule slurry was slurried in pyrophosphate buffer (0.1 M pH 7.7) and subjected to acetonic treatment in the cold.
After removing acetone by filtration, the acetonic preparation thus obtained was dried to constant weight in vacuum at 35° C. The dried material was homogenized in a mortar and powder thus obtained was used for the enzymic activity tests.
The caetonic powder was assayed on the following substrates: N-carbamoyl-D-(-)-alanine, N-carbamoyl-D(-) valine, N-carbamoyl-D-(-)glutamic acid, N-carbamoyl-D(-)-parahydroxyphenylglycine,N-carbamoyl-D(-)-paramethoxyphenylglycine, N-carbamoyl-D-(-)-phenylglycine, N-carbamoyl-L(+)-phenylglycine, N-carbamoyl-D(-)-phenylalanine, N-carbamoyl-L(+)-glutamic acid and N-carbamoyl-D(-) (2-thienyl)-glycine.
Thus, 20 mM solution were prepared of each carbamoyl derivative in pyrophosphate buffer 0.1 M pH 7.7, and, to 10 mls of each solution there was added an adequate quantity of acetonic powder, equal for each substrate.
The incubation was carried out under a UPP nitrogen blanket with stirring at a temperature of 40° C. After 1-hour incubation, the quantity of the produced aminoacid was measured by determining in the reaction mixtures the concentration of the NH4^+ ion which has been reached, with the phenol-hypochlorite method indicated in Example 2.

T1 sequence (Q44185 whole entry): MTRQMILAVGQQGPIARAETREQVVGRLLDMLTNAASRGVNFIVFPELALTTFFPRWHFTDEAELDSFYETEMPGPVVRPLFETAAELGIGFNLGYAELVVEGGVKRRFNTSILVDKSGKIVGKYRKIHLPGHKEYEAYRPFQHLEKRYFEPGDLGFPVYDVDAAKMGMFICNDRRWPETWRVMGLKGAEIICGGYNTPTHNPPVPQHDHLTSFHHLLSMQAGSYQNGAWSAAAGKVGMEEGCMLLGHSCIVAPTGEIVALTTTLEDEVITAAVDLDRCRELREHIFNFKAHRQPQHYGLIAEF

First: CC(C)[C@@H](NC(N)=O)C(=O)O [N-carbamoyl-D(-)-valine]
Second: C[C@@H](NC(N)=O)C(=O)O [N-carbamoyl-D-(-)-alanine]
The “% ACTIVITY (hydrolytic activity, assuming as 100 the activity against N-carbamoyl-D(-)-parahydroxyphenylglycine)” value (“% ACTIVITY” below) of the first is lower: 34.25% for the first, 57.5% for the second.

Going from `NC(=O)N[C@H](C(=O)O)c1ccccc1` [N-carbamoyl-L(+)-phenylglycine] to `NC(=O)N[C@@H](C(=O)O)c1ccccc1` [N-carbamoyl-D(-)-phenylglycine], the “% ACTIVITY” value rises from 0% to 81.25%.

First: NC(=O)N[C@H](Cc1ccccc1)C(=O)O [N-carbamoyl-D(-)-phenylalanine]
Second: NC(=O)N[C@@H](C(=O)O)c1cccs1 [N-carbamoyl-D(-)-(2-thienyl)glycine]
The “% ACTIVITY” value of the first is higher: 50.0% for the first, 40.7% for the second.

First: NC(=O)N[C@@H](CCC(=O)O)C(=O)O [N-carbamoyl-L(+)glutamic acid]
Second: NC(=O)N[C@H](CCC(=O)O)C(=O)O [N-carbamoyl-D(-)glutamic acid]
The “% ACTIVITY” value of the first is lower: 0% for the first, 21.7% for the second.

Going from `COc1ccc([C@@H](NC(N)=O)C(=O)O)cc1` [N-carbamoyl-D(-)-paramethoxyphenylglycine] to `NC(=O)N[C@@H](C(=O)O)c1ccc(O)cc1` [N-carbamoyl-D(-)-parahydroxyphenylglycine], the “% ACTIVITY” value rises from 40.0% to 100.0%.

same assay, conditions: 20 mM substrate, pyrophosphate buffer 0.1 M pH 7.7, 40° C., 1-hour incubation

`NC(=O)N[C@@H](C(=O)O)c1ccc(O)cc1` [N-carbamoyl-D(-)-parahydroxyphenylglycine] was tested, and the “activity of the carbamoylytic enzyme, ranking among substrates” value was “highest activity”.
